Test results as given in patent US12202829B2, “Heterocyclic compound” (FIMECS, Inc., priority 2018, dated 2025).
Structures can show the parent of a compound that is named as a salt. Blank lines part the entries; values can stand above or below the compound they belong to.

Assays:
[1] = target: T1, human XIAP_BIR3 domain purified protein (Homo sapiens, UniProt P98170); assay: XIAP binding inhibitory activity, HTRF method with b-Smac ligand; settings: for IC50: second symbol of the cell, read-out: XIAP binding 50% inhibitory concentration (IC50 value); for inhibition at 3 µM: test compound 3 μM, first symbol of the cell, read-out: XIAP binding inhibition rate when the concentration of the test compound is 3 μM
T1 construct: purchased R & D
Summary of the method: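 HTRF competition: human XIAP BIR3 and C-terminally biotinylated Smac peptide AVPIAQK, each diluted to 90 nM before addition, in HEPES pH 7.5 buffer with NaCl, BSA, Triton X-100. Eu-cryptate anti-His/streptavidin-XL665 detection after ≥4 h at room temperature; inhibition % from 665/615 ratio versus no-compound control.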

[2] = target: T2, BCR-ABL (Homo sapiens, UniProt P00519); assay: In vitro degradation activity of BCR-ABL in K562 cells, western blotting; format: cell-based; settings: test compound 30 μM, 24 hours, relative to DMSO control set at 100
T2 construct: BCR N-terminal part (natural fusion partner, P11274); endogenous in cells; host or cells: K562 (ECACC); the other entry of the earlier key: BCR (P11274, Breakpoint cluster region protein)
Protocol: In vitro degradation activities of BCR-ABL of the example compounds were evaluated by the following method. K562 cells were purchased from ECACC and cultured in RPMI-1640 supplemented with 10% FBS and 1% penicillin/streptomycin. K562 cells were seeded at a density of 1×10^6 cells/well in 24-well plate and treated with DMSO control or Example 80 and 81 (1, 3, 10, 30 μM), and then incubated for 24 hours. The cells were collected and lysed on ice for 30 minutes in lysis buffer (0.5% Triton X-100, 0.01 M Tris-HCl (pH 8.0), 0.15 M NaCl) containing a protease inhibitor cocktail (Sigma-Aldrich). The lysates were vortexed for 2 minutes and centrifuged for 15 minutes at 15 krpm at 4° C. Protein concentrations were determined by the BCA assay (Thermo Fisher). Proteins were separated with Nu-PAGE (Thermo Fisher) and analyzed by western blotting (standard protocol) using antibodies of anti-BCR (Cell Signaling #3902), and R-actin (Sigma #A2066). Bands (luminescent intensities) were quantified using LAS-4000 luminescent image analyzer (Fuji). The values of BCR-ABL were corrected by the internal control value of R-actin and analyzed relative to DMSO control set at 100. The remaining protein rate (%) are described as A≤25%, 25%<B≤50%, 50%<C≤75%, D>75% when the concentration of the test compound is 30 μM.

T1 sequence (P98170 252-356 limits assumed): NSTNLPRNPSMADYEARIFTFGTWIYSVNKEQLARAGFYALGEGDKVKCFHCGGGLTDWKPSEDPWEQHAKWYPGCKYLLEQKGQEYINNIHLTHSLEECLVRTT
T2 sequence (P00519 with tags, fused parts or gaps): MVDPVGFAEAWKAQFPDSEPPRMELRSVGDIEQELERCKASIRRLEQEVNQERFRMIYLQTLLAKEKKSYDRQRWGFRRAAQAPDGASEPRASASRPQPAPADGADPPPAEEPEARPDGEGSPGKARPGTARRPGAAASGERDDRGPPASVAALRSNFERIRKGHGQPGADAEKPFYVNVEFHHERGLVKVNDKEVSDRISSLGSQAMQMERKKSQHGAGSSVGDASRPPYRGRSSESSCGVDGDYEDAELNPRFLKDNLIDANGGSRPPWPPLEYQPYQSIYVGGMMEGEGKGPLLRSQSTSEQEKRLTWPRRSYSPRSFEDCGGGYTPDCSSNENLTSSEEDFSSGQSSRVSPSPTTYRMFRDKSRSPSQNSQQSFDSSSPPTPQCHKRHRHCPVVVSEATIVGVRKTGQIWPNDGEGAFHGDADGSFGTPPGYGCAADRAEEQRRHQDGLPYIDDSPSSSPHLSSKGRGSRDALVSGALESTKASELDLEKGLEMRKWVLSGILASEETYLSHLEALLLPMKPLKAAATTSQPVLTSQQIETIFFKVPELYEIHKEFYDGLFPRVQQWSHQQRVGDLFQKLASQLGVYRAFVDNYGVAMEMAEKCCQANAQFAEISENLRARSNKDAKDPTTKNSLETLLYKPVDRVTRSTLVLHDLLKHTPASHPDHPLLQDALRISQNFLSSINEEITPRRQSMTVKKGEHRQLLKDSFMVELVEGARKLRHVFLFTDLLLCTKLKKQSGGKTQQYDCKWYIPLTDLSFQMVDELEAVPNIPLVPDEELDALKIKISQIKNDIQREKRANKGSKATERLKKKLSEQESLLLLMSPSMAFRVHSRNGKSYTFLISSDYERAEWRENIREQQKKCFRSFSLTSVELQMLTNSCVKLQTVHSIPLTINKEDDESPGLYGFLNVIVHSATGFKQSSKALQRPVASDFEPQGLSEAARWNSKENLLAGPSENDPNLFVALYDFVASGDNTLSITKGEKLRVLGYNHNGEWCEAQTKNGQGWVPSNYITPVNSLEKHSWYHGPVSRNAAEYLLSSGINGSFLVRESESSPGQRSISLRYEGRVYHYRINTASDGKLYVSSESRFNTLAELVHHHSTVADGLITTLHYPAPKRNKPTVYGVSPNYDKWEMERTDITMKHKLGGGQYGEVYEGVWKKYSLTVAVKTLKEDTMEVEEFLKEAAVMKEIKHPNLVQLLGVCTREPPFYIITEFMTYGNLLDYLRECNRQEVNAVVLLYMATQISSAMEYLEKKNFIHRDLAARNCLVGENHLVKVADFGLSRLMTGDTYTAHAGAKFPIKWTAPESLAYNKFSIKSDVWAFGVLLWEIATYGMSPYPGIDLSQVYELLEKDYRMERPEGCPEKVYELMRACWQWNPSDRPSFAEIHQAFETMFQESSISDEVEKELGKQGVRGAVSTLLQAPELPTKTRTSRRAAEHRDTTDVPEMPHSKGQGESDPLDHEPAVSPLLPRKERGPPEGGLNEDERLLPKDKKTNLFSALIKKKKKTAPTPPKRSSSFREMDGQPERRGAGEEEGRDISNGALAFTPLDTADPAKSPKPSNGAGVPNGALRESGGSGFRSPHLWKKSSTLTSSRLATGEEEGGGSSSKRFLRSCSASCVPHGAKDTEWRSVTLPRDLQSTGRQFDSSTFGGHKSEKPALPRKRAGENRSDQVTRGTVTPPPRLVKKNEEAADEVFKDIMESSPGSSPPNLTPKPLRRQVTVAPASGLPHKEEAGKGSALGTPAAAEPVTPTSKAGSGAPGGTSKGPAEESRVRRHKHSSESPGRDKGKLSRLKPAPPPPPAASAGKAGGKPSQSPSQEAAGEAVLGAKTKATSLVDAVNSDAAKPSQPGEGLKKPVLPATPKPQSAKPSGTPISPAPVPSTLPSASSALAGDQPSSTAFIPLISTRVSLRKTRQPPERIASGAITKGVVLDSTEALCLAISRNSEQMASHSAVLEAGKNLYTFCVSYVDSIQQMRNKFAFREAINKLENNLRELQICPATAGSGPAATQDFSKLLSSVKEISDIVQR

Structure (SMILES): CN[C@@H](C)C(=O)N[C@H](C(=O)N1CCN(C(=O)c2c(C(=O)NCCOCCN3CCN(c4cc(Nc5ncc(C(=O)Nc6c(C)cccc6Cl)s5)nc(C)n4)CC3)c3cc(F)c(F)cc3n2C)CC1)C1CCCCC1 [Example 80, N-(2-Chloro-6-methylphenyl)-2-((6-(4-(2-(2-(2-(4-((S)-2-cyclohexyl-2-((S)-2-(methylamino)propanamide)acetyl)piperazine-1-carbonyl)-5,6-difluoro-1-methyl-1H-indole-3-carboxamido)ethoxy)ethyl)piperazin-1-yl)-2-methylpyrimidin-4-yl)amino)thiazole-5-carboxamide]
IC50 [1]: 0.3 to 3 µM | remaining protein rate (%) BCR-ABL [2]: C (50%<C≤75%)

Structure (SMILES): CN[C@@H](C)C(=O)N[C@H](C(=O)N1CCN(C(=O)c2c(C(=O)NCCOCCOCCOc3ccc(NC(=O)C[C@@H]4N=C(c5ccc(Cl)cc5)c5c(sc(C)c5C)-n5c(C)nnc54)cc3)c3cc(F)c(F)cc3n2C)CC1)C1CCCCC1 [Example 78, N-(2-(2-(2-(4-(2-((S)-4-(4-Chlorophenyl)-2,3,9-trimethyl-6H-thieno[3,2-f][1,2,4]triazolo[4,3-a][1,4]diazepin-6-yl)acetamido)phenoxy)ethoxy)ethoxy)ethyl)-2-(4-((S)-2-cyclohexyl-2-((S)-2-(methylamino)propanamido)acetyl)piperazine-1-carbonyl)-5,6-difluoro-1-methyl-1H-indole-3-carboxamide hydrochloride]
IC50 [1]: 0.3 to 3 µM

Structure (SMILES): CN[C@@H](C)C(=O)N[C@H](C(=O)N1CCN(C(=O)c2cc3ccnn3cc2F)CC1)C1CCCCC1 [Example 6, (S)-N-((S)-1-cyclohexyl-2-(4-(6-fluoropyrazolo[1,5-a]pyridine-5-carbonyl)piperazin-1-yl)-2-oxoethyl)-2-(methylamino)propanamide]
inhibition at 3 µM [1]: > 25%

Structure (SMILES): CN[C@@H](C)C(=O)N[C@H](C(=O)N1CCN(C(=O)c2cc(C(F)(F)F)nn2C)CC1)C1CCCCC1 [Example 11, (S)-N-((S)-1-cyclohexyl-2-(4-(1-methyl-3-(trifluoromethyl)-1H-pyrazole-5-carbonyl)piperazin-1-yl)-2-oxoethyl)-2-(methylamino)propanamide]
inhibition at 3 µM [1]: > 25%

Structure (SMILES): CN[C@@H](C)C(=O)N[C@H](C(=O)N1CCN(C(=O)c2cc3cc(F)ccc3n2CC(=O)NCCOCCOCCNC(=O)C[C@@H]2N=C(c3ccc(Cl)cc3)c3c(sc(C)c3C)-n3c(C)nnc32)CC1)C1CCCCC1 [Example 76, (S)-N-((S)-2-(4-(1-(14-((S)-4-(4-chlorophenyl)-2,3,9-trimethyl-6H-thieno[3,2-f][1,2,4]triazolo[4,3-a][1,4]diazepin-6-yl)-2,13-dioxo-6,9-dioxa-3,12-diazatetradecyl)-5-fluoro-1H-indole-2-carbonyl)piperazin-1-yl)-1-cyclohexyl-2-oxoethyl)-2-(methylamino)propanamide]
inhibition at 3 µM [1]: > 25%

Structure (SMILES): CN[C@@H](C)C(=O)N[C@H](C(=O)N1CCN(C(=O)c2ccn3nccc3c2C)CC1)C1CCCCC1 [Example 4, (S)-N-((S)-1-cyclohexyl-2-(4-(4-methylpyrazolo[1,5-a]pyridine-5-carbonyl)piperazin-1-yl)-2-oxoethyl)-2-(methylamino)propanamide]
inhibition at 3 µM [1]: 50 to 75%

Structure (SMILES): CN[C@@H](C)C(=O)N[C@H](C(=O)N1CCN(C(=O)c2c(C(=O)NCCOCCOCCOCCNC(=O)C[C@@H]3N=C(c4ccc(Cl)cc4)c4c(sc(C)c4C)-n4c(C)nnc43)c3cc(F)c(F)cc3n2C)CC1)C1CCCCC1 [Example 74, N-(1-((S)-4-(4-chlorophenyl)-2,3,9-trimethyl-6H-thieno[3,2-f][1,2,4]triazolo[4,3-a][1,4]diazepin-6-yl)-2-oxo-6,9,12-trioxa-3-azatetradecan-14-yl)-2-(4-((S)-2-cyclohexyl-2-((S)-2-(methylamino)propanamido)acetyl)piperazine-1-carbonyl)-5,6-difluoro-1-methyl-1H-indole-3-carboxamide]
inhibition at 3 µM [1]: 25 to 50%

Structure (SMILES): CN[C@@H](C)C(=O)N[C@H](C(=O)N1CCN(C(=O)c2ccn3nccc3c2)CC1)C1CCCCC1 [Example 2, (S)-N-((S)-1-cyclohexyl-2-oxo-2-(4-(pyrazolo[1,5-a]pyridine-5-carbonyl)piperazin-1-yl)ethyl)-2-(methylamino)propanamide]
inhibition at 3 µM [1]: 25 to 50%

Structure (SMILES): CN[C@@H](C)C(=O)N[C@H](C(=O)N1CCN(C(=O)c2c(C(=O)NCCOCCOCCN3CCN(c4cc(Nc5ncc(C(=O)Nc6c(C)cccc6Cl)s5)nc(C)n4)CC3)c3cc(F)c(F)cc3n2C)CC1)C1CCCCC1 [Example 81, N-(2-Chloro-6-methylphenyl)-2-((6-(4-(2-(2-(2-(2-(4-((S)-2-cyclohexyl-2-((S)-2-(methylamino)propanamido)acetyl)piperazine-1-carbonyl)-5,6-difluoro-1-methyl-1H-indole-3-carboxamido)ethoxy)ethoxy)ethyl)piperazin-1-yl)-2-methylpyrimidin-4-yl)amino)thiazole-5-carboxamide trifluoroacetate]
IC50 [1]: 0.3 to 3 µM | remaining protein rate (%) BCR-ABL [2]: D (D>75%)

Other lines, results leading:

inhibition at 3 µM [1]: > 25%
Structure (SMILES): CN[C@@H](C)C(=O)N[C@H](C(=O)N1CCN(C(=O)c2ccn3cc(C)nc3c2)CC1)C1CCCCC1 [Example 21, (S)-N-((S)-1-cyclohexyl-2-(4-(2-methylimidazo[1,2-a]pyridine-7-carbonyl)piperazin-1-yl)-2-oxoethyl)-2-(methylamino)propanamide]

IC50 [1]: 3 to 30 µM
Structure (SMILES): CN[C@@H](C)C(=O)N[C@H](C(=O)N1CCN(C(=O)c2c(C)c3ccccc3n2CCOC)CC1)C1CCCCC1 [Example 51, (S)—N—((S)-1-Cyclohexyl-2-(4-(1-(2-methoxyethyl)-3-methyl-1H-indole-2-carbonyl)piperazin-1-yl)-2-oxoethyl)-2-(methylamino)propanamide]

IC50 [1]: 3 to 30 µM
Structure (SMILES): CN[C@@H](C)C(=O)N[C@H](C(=O)N1CCN(C(=O)c2cc3cc(F)ccc3n2CCOC)CC1)C1CCCCC1 [Example 52, (S)—N—((S)-1-Cyclohexyl-2-(4-(5-fluoro-1-(2-methoxyethyl)-1H-indole-2-carbonyl)piperazin-1-yl)-2-oxoethyl)-2-(methylamino)propanamide]

inhibition at 3 µM [1]: > 75%
Structure (SMILES): CN[C@@H](C)C(=O)N[C@H](C(=O)N1CCN(C(=O)c2cc3cc(F)ccc3n2C)CC1)C1CCCCC1 [Example 15, (S)-N-((S)-1-cyclohexyl-2-(4-(5-fluoro-1-methyl-1H-indole-2-carbonyl)piperazin-1-yl)-2-oxoethyl)-2-(methylamino)propanamide]

IC50 [1]: 3 to 30 µM
Structure (SMILES): CN[C@@H](C)C(=O)N[C@H](C(=O)N1CCN(C(=O)c2cc3cc(F)c(F)cc3n2CCOC)CC1)C1CCCCC1 [Example 54, (S)—N—((S)-1-Cyclohexyl-2-(4-(5,6-difluoro-1-(2-methoxyethyl)-1H-indole-2-carbonyl)piperazin-1-yl)-2-oxoethyl)-2-(methylamino)propanamide]

IC50 [1]: < 0.3 µM
Structure (SMILES): CN[C@@H](C)C(=O)N[C@H](C(=O)N1CCN(C(=O)c2ccc3c(c2)cc(C)n3CCOCCOCCO)CC1)C1CCCCC1 [Example 69, (S)—N—((S)-1-Cyclohexyl-2-(4-(1-(2-(2-(2-hydroxyethoxy)ethoxy)ethyl)-2-methyl-1H-indole-5-carbonyl)piperazine-1-yl)-2-oxoethyl)-2-(methylamino)propanamide]

inhibition at 3 µM [1]: > 25%
Structure (SMILES): CN[C@@H](C)C(=O)N[C@H](C(=O)N1CCN(C(=O)c2ccc3c(C)n(C)nc3c2)CC1)C1CCCCC1 [Example 23, (S)-N-((S)-1-cyclohexyl-2-(4-(2,3-dimethyl-2H-indazole-6-carbonyl)piperazin-1-yl)-2-oxoethyl)-2-(methylamino)propanamide]
